Measurements published in patent publication US11708366B2, “Heteroaryl substituted spiropiperidinyl derivatives and pharmaceutical uses thereof” (Novartis AG, priority 2020, dated 2023).
Read-outs that look alike come from different tables or passages of the source.

Target: LTC4S (Homo sapiens (Human), UniProt Q16873)
Assay: Human whole blood HTRF assay (LTC4 release after calcium ionophore A23187)
Format: cell-based
Conditions: calcium ionophore A23187 stimulation, LTC4 by HTRF
Method: B. Human Whole Blood HTRF Assay
LTC4 synthase catalyzes the conversion of Leukotriene A4 (LTA4) to Leukotriene C4 (LTC4) in the presence of reduced glutathione (GSH) as a co-substrate. For testing the inhibition of LTC4S, compounds are prepared for either eight-point or sixteen-point dose response studies in 384-well Labcyte low dead volume (LDV) plates. For eight-point dose response studies, compounds are diluted 1:5 starting at 1 μM concentration in 90% DMSO. […] Compounds are studied in duplicates. Ten wells are filled with 90% DMSO which correspond to the stimulated and unstimulated control wells. […] The morning of the assay, whole blood is collected from three human donors. Donors must be non-smokers and must not have taken NSAIDs within the 48 hours prior to blood collection. The amount of blood collected per donor depends on the amount of compounds to be tested and the dose response format in which they are to be studied (about 8 mL of whole blood for either 22 compounds in 8-point dose response format or 11 compounds in 16-point dose response format). […] 50 μL of diluted blood are then dispensed into each assay plate well with pre-dispensed compounds and DMSO for the stimulated and unstimulated controls using a Thermo Scientific™ Multidrop™ Combi reagent dispenser, and incubated at 37° C. for 4 hours. Calcium ionophore A23187 is used to induce a rapid increase in intracellular levels of Ca^2+. The Ca^2+ functions as a universal second messenger in various immune cells, such as T cells, B cells and mast cells, and is used to induce degranulation and release of eicosanoids, including LTC4, by cells contained in the whole blood samples. […] All but the unstimulated control wells are subsequently stimulated by dispensing 1 μL of the 0.5 mg/mL calcium ionophore suspension using the Thermo Scientific™ Multidrop™ Combi reagent dispenser. Plates are incubated for 15 minutes at 37° C. Plates are then centrifuged at 300 g for 10 minutes at room temperature to pellet blood cells and stop the reaction. […] Plates are sealed and stored at −80° C.
In order to measure the amount of LTC4 released by cells in the human blood samples during calcium ionophore stimulation, supernatants are analyzed using the Cisbio LTC4 homogeneous time-resolved FRET (HTRF) kit (Cisbio #64LC4PEH). […] Ten serially diluted standard curve solutions are also dispensed in duplicate into each plate as instructed in the protocol. Blank controls and cryptate control wells are also prepared. Then, 5 μL of anti-LTC4-d2 working solution are dispensed into all the wells, but the cryptate control wells. Subsequently, 5 μL of anti-LTC4-Eu3+ cryptate working solution are dispensed into all the wells. Plates are then covered with a lid and incubated at room temperature for one hour with gentle orbital shaking (˜450 rpm). […] HTRF ratios are calculated for each well by dividing the 665 nm intensity by the 620 nm intensity, and multiplying the resulting ratio by 10,000. LTC4 standard curves are interpolated for each plate and used to convert the HTRF ratio readouts into the amount of LTC4 present in each well (in ng/mL). Parametric curve fitting is used to obtain inhibition curves and IC50 values.

[1] = human whole blood diluted 1:3, 4 h incubation, read-out: human whole blood HTRF IC50

Molecule: CC(C)(O)c1nc(N2CCC3(CCCC(=O)N3c3ccc(F)c(F)c3)CC2)cc(-n2cc(C(F)(F)F)cn2)n1 [Example 65, 1-(3,4-difluorophenyl)-9-(2-(2-hydroxypropan-2-yl)-6-(4-(trifluoromethyl)-1H-pyrazol-1-yl)pyrimidin-4-yl)1,9-diazaspiro[5.5]undecane-2-one]
- IC50 [1]: 1 nM

Molecule: [2H]C1(Oc2cc(N3CCC4(CCCC(=O)N4c4ccc(F)c(F)c4)CC3)nc(N)n2)CCOCC1 [Example 103, 9-(2-amino-6-((tetrahydro-2H-pyran-4-yl-4-d)oxy)pyrimidin-4-yl)-1-(3,4-difluorophenyl)-1,9-diazaspiro[5.5]undecan-2-one]
- IC50 [1]: 8 nM

Molecule: O=C1CCCC2(CCN(c3cc(OC4CCOCC4)nn(Cc4ccccc4)c3=O)CC2)N1c1ccc(F)c(F)c1 [Example 15a, 9-(2-benzyl-3-oxo-6-((tetrahydro-2H-pyran-4-yl)oxy)-2,3-dihydropyridazin-4-yl)-1-(3,4-difluorophenyl)-1,9-diazaspiro[5.5]undecan-2-one]
- IC50 (human whole blood HTRF IC50, human whole blood diluted 1:3, 4 h incubation): 1 nM

Molecule: (R)-9-(2-amino-6-((1,1,1-trifluoropropan-2-yl)oxy)pyrimidin-4-yl)-1-(3,4-difluorophenyl)-3-oxa-1,9-diazaspiro[5.5]undecan-2-one, or (S)-9-(2-amino-6-((1,1,1-trifluoropropan-2-yl)oxy)pyrimidin-4-yl)-1-(3,4-difluorophenyl)-3-oxa-1,9-diazaspiro[5.5]undecan-2-one [Example 113a]
- IC50 [1]: 15 nM

Molecule: O=C1CCCC2(CCN(c3cc(O[C@@H]4CCOC[C@@H]4F)nc(CO)n3)CC2)N1c1ccc(F)c(F)c1 (racemic) [Example 107, rac-1-(3,4-difluorophenyl)-9-(6-(((3S,4R)-3-fluorotetrahydro-2H-pyran-4-yl)oxy)-2-(hydroxymethyl)pyrimidin-4-yl)-1,9-diazaspiro[5.5]undecan-2-one]
- IC50 [1]: 6 nM

Molecule: Nc1nc(N2CCC3(CCCC(=O)N3c3ccc(F)c(F)c3)CC2)cc(C(F)(F)C(F)F)n1 [Example 78, 9-(2-amino-6-(1,1,2,2-tetrafluoroethyl)pyrimidin-4-yl)-1-(3,4-difluorophenyl)-1,9-diazaspiro[5.5]undecan-2-one]
- IC50 [1]: 24 nM

Molecule: O=C1CCCC2(CCN(c3cc(-n4cccn4)nc(C(F)(F)F)n3)CC2)N1c1ccc(F)c(F)c1 [Example 51, 9-(6-(1H-pyrazol-1-yl)-2-(trifluoromethyl)pyrimidin-4-yl)-1-(3,4-difluorophenyl)-1,9-diazaspiro[5.5]undecan-2-one]
- IC50 [1]: 70 nM

Molecule: Nc1nc(N2CCC3(CCCC(=O)N3c3ccc(F)c(F)c3)CC2)c(F)c(-n2cccn2)n1 [Example 59, 9-(2-amino-5-fluoro-6-(1H-pyrazol-1-yl)primidin-4-yl)-1-(3,4-difluorophenyl)-1,9-diazaspiro[5.5]undecan-2-one]
- IC50 [1]: 640 nM

Molecule: Nc1nc(OC2CCOCC2)cc(N2CCC3(CC2)C[C@H](F)CC(=O)N3c2ccc(F)c(F)c2)n1 (single isomer, unassigned) [Example 116b, (S)-9-(2-amino-6-((tetrahydro-2H-pyran-4-yl)oxy)pyrimidin-4-yl)-1-(3,4-difluorophenyl)-4-fluoro-1,9-diazaspiro[5.5]undecan-2-one, or (R)-9-(2-amino-6-((tetrahydro-2H-pyran-4-yl)oxy)pyrimidin-4-yl)-1-(3,4-difluorophenyl)-4-fluoro-1,9-diazaspiro[5.5]undecan-2-one]
- IC50 [1]: 33 nM

Molecule: O=C1CCCC2(CCN(c3cc(O[C@@H]4COC[C@H]4F)nc(CO)n3)CC2)N1c1ccc(F)c(F)c1 (racemic) [Example 108, rac-1-(3,4-diflurophenyl)-9-(6-(((3R,4R)-4-fluorotetrahydrofuran-3-yl)oxy)-2-(hydroxymethyl)pyrimidin-4-yl)-1,9-diazaspiro[5.5]undecan-2-one]
- IC50 [1]: 22 nM

Molecule: O=C1CCCC2(CCN(c3cc(-n4cc(F)cn4)nc(N4CCOCC4)n3)CC2)N1c1ccc(F)c(F)c1 [Example 73, 1-(3,4-difluorophenyl)-9-(6-(4-fluoro-1H-pyrazol-1-yl)-2-morpholinopyrimidin-4-yl)-1,9-diazaspiro[5.5]undecan-2-one]
- IC50 [1]: 68 nM

Molecule: O=C1CCCC2(CCN(c3cc(-c4ncco4)ncn3)CC2)N1c1ccc(F)c(F)c1 [Example 62, 1-(3,4-difluorophenyl)-9-(6-(oxazol-2-yl)pyrimidin-4-yl)-1,9-diazaspiro[5.5]undecan-2-one]
- IC50 [1]: 410 nM

Molecule: O=C1CCCC2(CCN(c3cc(-n4cncn4)ncn3)CC2)N1c1ccc(F)c(F)c1 [Example 54, 9-(6-(1H-1,2,4-triazol-1-yl)pyrimidin-4-yl)-1-(3,4-difluorophenyl)-1,9-diazaspiro[5.5]undecan-2-one]
- IC50 [1]: 300 nM

Molecule: CC(F)(F)c1cc(N2CCC3(CCCC(=O)N3c3ccc(F)c(F)c3)CC2)nc(N)n1 [Example 120, 9-(2-amino-6-(1,1-difluoroethyl)pyrimidin-4-yl)-1-(3,4-difluorophenyl)-1,9-diazaspiro[5.5]undecan-2-one]
- IC50 [1]: 32 nM

Molecule: CCOC(=O)c1nc(O[C@@H]2COC[C@H]2F)cc(N2CCC3(CCCC(=O)N3c3ccc(F)c(F)c3)CC2)n1 (racemic) [Example 111, rac ethyl 4-(1-(3,4-difluorophenyl)-2-oxo-1,9-diazaspiro[5.5]undecane-9-yl)-6-(((3S,4S)-4-fluorotetrahydrofuran-3-yl)oxy)pyrimidine-2-carboxylate]
- IC50 [1]: 17 nM

Molecule: CC1(C(Oc2cc(N3CCC4(CCCC(=O)N4c4ccc(F)c(F)c4)CC3)nc(N)n2)C(F)(F)F)COC1 (racemic) [Example 96, rac-9-(2-amino-6-(2,2,2-trifluoro-1-(3-methyloxetan-3-yl)ethoxy)pyrimidin-4-yl)-1-(3,4-difluorophenyl)-1,9-diazaspiro[5.5]undecan-2-one]
- IC50 [1]: 3 nM

Molecule: Nc1nc(N2CCC3(CCCC(=O)N3c3ccc(F)c(F)c3)CC2)nc(-n2cc(F)cn2)n1 [Example 60, 9-(4-amino-6-(4-fluoro-1H-pyrazol-1-yl)-1,3,5-triazin-2-yl)-1-(3,4-difllorophenyl)-1,9-diazaspiro[5.5]undecan-2-one]
- IC50 [1]: 680 nM

Molecule: O=C1CCCC2(CCN(c3cc(-n4cccn4)nc(N4CCOCC4)n3)CC2)N1c1ccc(F)c(F)c1 [Example 52, 1-(3,4-difluorophenyl)-9-(2-morpholino-6-(1H-pyrazol-1-yl)pyrimidin-4-yl)-1,9-diazaspiro[5.5]undecan-2-one]
- IC50 [1]: 29 nM

Molecule: O=C1CCCC2(CCN(c3cc(-n4ccc(C(F)(F)F)n4)ncn3)CC2)N1c1ccc(F)c(F)c1 [Example 57, 1-(3,4-difluorophenyl)-9-(6-(3-(trifluoromethyl)-1H-pyrazol-1-yl)pyrimidin-4-yl)-1,9-diazaspiro[5.5]undecan-2-one]
- IC50 [1]: 850 nM

Molecule: Nc1nc(OCC(F)(F)F)cc(N2CCC3(CCCC(=O)N3c3ccc(F)c(F)c3)CC2)n1 [Example 91, 9-(2-amino-6-(2,2,2-trifluoroethoxy)pyrimidin-4-yl)-1-(3,4-difluorophenyl)-1,9-diazaspiro[5.5]undecan-2-one]
- IC50 [1]: 3 nM

Molecule: Nc1nc(C2=CCC(F)(F)CC2)cc(N2CCC3(CCCC(=O)N3c3ccc(F)c(F)c3)CC2)n1 [Example 74, 9-(2-amino-6-(4,4-difluorocyclohex-1-en-1-yl)pyrimidin-4-yl)-1-(3,4-difluorophenyl)-1,9-diazaspiro[5.5]undecan-2-one]
- IC50 [1]: 4 nM
